Experimental data taken from the CheMixHub ionic liquid set.

Assay: xn = mol fraction of the nth substance listed
Conditions: for viscosity: 100.3 kPa; for electrical conductivity: 298 K, 101 kPa

CCCC[n+]1ccn(C)c1.C[C@H](N)C(=O)[O-] + O
viscosity [mPa·s]
Conditions	288.15 K	293.15 K	298.15 K	303.15 K	308.15 K	313.15 K	318.15 K	323.15 K	328.15 K
x1 = 0.0002936	1.156	1.017	0.9	0.81	0.726	0.661	0.604	0.554	0.511
x1 = 0.0003927	1.162	1.022	0.907	0.813	0.732	0.664	0.606	0.557	0.513
x1 = 0.0004989	1.167	1.027	0.911	0.817	0.735	0.666	0.608	0.559	0.515
x1 = 0.0009775	1.203	1.057	0.937	0.838	0.755	0.685	0.626	0.573	0.529
x1 = 0.002927	1.361	1.197	1.057	0.939	0.842	0.759	0.688	0.629	–
x1 = 0.004981	1.513	1.326	1.163	1.028	0.917	0.827	0.749	0.685	–
x1 = 0.007048	1.658	1.446	1.273	1.119	0.997	0.894	0.806	0.736	–
x1 = 0.009016	1.821	1.575	1.368	1.209	1.07	0.959	0.867	0.781	–
x1 = 0.01103	1.957	1.697	1.477	1.301	1.147	1.027	0.929	0.832	–
x1 = 0.01317	2.101	1.819	1.58	1.38	1.225	1.089	0.986	0.888	–
x1 = 0.01511	2.246	1.941	1.677	1.469	1.292	1.156	1.037	0.932	–
x1 = 0.01781	2.459	2.107	1.825	1.598	1.393	1.253	1.115	0.999	–

CC[N+](CC)(CC)CCCS(=O)(=O)O.F[B-](F)(F)F + O
Conditions	electrical conductivity [S/m]
x1 = 0.00077	1.03
x1 = 0.002	1.68
x1 = 0.01495	2.42
x1 = 0.02005	2.22
